Reference: US20100323031A1, “Synergistic combination to enhance blood glucose and insulin metabolism” (GLYKON TECHNOLOGIES GROUP, LLC, priority 2009, published 2010)
Marks after values point to notes of the source that are not given here.

Tests used:
[1] = system: streptozotocin (STZ)-induced diabetes; assay: Pilot animal streptozotocin-induced diabetes trial, blood glucose by glucometer; format: in vivo, male Wistar albino rats; conditions: STD Herbal 250 mg/kg
Protocol: The synergism of the formula is reflected in findings in an animal trial of induced diabetes treated with Metformin. To produce streptozotocin (STZ)-induced diabetes in experimental rats, male Wistar albino rats of 12 weeks age were allowed to fast 24 hrs prior to injection with freshly prepared STZ in citrate buffer […] (45 mg/kg, i.p). […] However, an additional arm of similarly-induced diabetic rats that were older and much sicker was added to test the herbal mixture prepared to produce the relative percentages of each ingredient as in Example 1 given above, here termed “STD Herbal.” After an overnight fast, the samples suspended in 5% gum acacia were fed by gastric intubations with a syringe. […] The blood glucose level was determined by using an electronic glucometer (Accu Check, Roche Diagnostic) and the results are tabulated in table 4. n=6 animals in each group. Parenthesis value indicate percentage reduction of blood sugar level; *P<0.01 compared with initial level of blood glucose (0 h) in the respective group. Data were analyzed by repeated measure ANOVA followed by Dunnett test.

[2] = system: Human - sedentary; conditions: 3 grams HCA as the free acid equivalent; cited from earlier work
[3] = system: Human morbidly obese diabetics; conditions: published literature, U.S. Pat. No. 6,207,714; cited from earlier work
[4] = system: Male Wistar rats; conditions: equivalent to 2,170 mg HCA free acid; cited from earlier work
[5] = system: Aged diabetic obese Zucker rat; conditions: human-equivalent dose, 6:1 rat to human multiplier; cited from earlier work

CN(C)C(=N)N=C(N)N [Metformin]
Blood glucose level, Initial (0 hr) ([1]; 0 hr, before treatment, overnight fast, Metformin 150 mg/kg by gastric intubation, n=6, in mg/dL (unit assumed)): 329.2 ± 5.25
percentage reduction of blood sugar level, +1 hr ([1]; +1 hr vs initial (0 hr), Metformin 150 mg/kg): (17.49) %
Blood glucose level, Treatment +1 hr ([1]; +1 hr, Metformin 150 mg/kg by gastric intubation, n=6, in mg/dL (unit assumed)): 271.6 ± 4.0
percentage reduction of blood sugar level, +2 hr ([1]; +2 hr vs initial (0 hr), Metformin 150 mg/kg): (34.87) %
Blood glucose level, Treatment +2 hr ([1]; +2 hr, Metformin 150 mg/kg by gastric intubation, n=6, in mg/dL (unit assumed)): 214.4 ± 3.17*
percentage reduction of blood sugar level, +3 hr ([1]; +3 hr vs initial (0 hr), Metformin 150 mg/kg): (46.38) %
Blood glucose level, Treatment +3 hr ([1]; +3 hr, Metformin 150 mg/kg by gastric intubation, n=6, in mg/dL (unit assumed)): 176 ± 6.7*
percentage reduction of blood sugar level, +4 hr ([1]; +4 hr vs initial (0 hr), Metformin 150 mg/kg): (53.52) %
Blood glucose level, Treatment +4 hr ([1]; +4 hr, Metformin 150 mg/kg by gastric intubation, n=6, in mg/dL (unit assumed)): 153 ± 3.31*

O=C([O-])C[C@@](O)(C(=O)[O-])[C@H](O)C(=O)[O-].O=C([O-])C[C@@](O)(C(=O)[O-])[C@H](O)C(=O)[O-].[Ca+2].[Ca+2].[Ca+2] [calcium salt, calcium salt of (−)-hydroxycitric acid]
efficacy in reducing blood glucose [2]: ineffective

potassium salt of (−)-hydroxycitric acid
lowest dose of HCA as free acid equivalent found efficacious in reducing blood glucose [3]: 3 grams
efficacy in reducing blood glucose at smaller dosage [4]: ineffective

potassium-calcium salt of (−)-hydroxycitric acid
lowest stand-alone dose shown to be effective, as HCA free acid equivalent [5]: 3,276 mg
